Molecules are shown by their SMILES.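 1) Cells in 96-well plates. 2) Compound, 48 h, 5 concentrations. 3) Linear interpolation between surrounding doses. 4) Unreached endpoint = highest concentration. TGI denotes the concentration required for complete inhibition of growth.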 Where only a bound is given, the exact number is not on record here.

Some test systems named below: 786-0 renal; CCRF-CEM leukemia; DU-145 prostate; EKVX NSCLC; HCT-116 colon; HOP-62 NSCLC; KM12 colon; MALME-3M melanoma; MCF7 breast; MOLT-4 leukemia; OVCAR-4 ovarian; PC-3 prostate; RXF 393 renal; SK-OV-3 ovarian; SN12C renal; TK-10 renal.
Experiment in all cases: growth of human tumour cells (NCI), 48 h

As for `CSc1c(C#N)c(N)nc2c(N=Nc3ccc(Br)cc3)c(N)nn12`, the TGI was 11.3 µM in the assay with 786-0 renal; 10.2 µM in the assay with CCRF-CEM leukemia; 14.9 µM in the assay with DU-145 prostate; 23.9 µM with EKVX NSCLC; 12.5 µM in the assay with HCT-116 colon; 32.3 µM in the assay with HOP-62 NSCLC. The TGI with KM12 colon was found to be 23.6 µM; in the assay with MALME-3M melanoma, 24 µM; with MCF7 breast it was 8.63 µM; with MOLT-4 leukemia, 27.3 µM; in the assay with OVCAR-4 ovarian, 15.1 µM; with PC-3 prostate, 23.5 µM. The TGI with RXF 393 renal is 21 µM; with SK-OV-3 ovarian, 38.1 µM; in the assay with SN12C renal, 13.4 µM; in the assay with TK-10 renal, 29.7 µM.
Turning to `O=C(c1ccccc1)n1cc(-c2ccccc2)c2c(=O)[nH]cnc21`, the TGI with 786-0 renal, in the assay with CCRF-CEM leukemia, in the assay on DU-145 prostate, with EKVX NSCLC, in the assay with HCT-116 colon and in the assay on HOP-62 NSCLC was above 100 µM in each case. Moreover, the TGI in the assay with KM12 colon, with MALME-3M melanoma, in the assay with MCF7 breast, in the assay on MOLT-4 leukemia, with OVCAR-4 ovarian and with PC-3 prostate was above 100 µM in each case. The TGI in the assay on RXF 393 renal, in the assay on SK-OV-3 ovarian, with SN12C renal and with TK-10 renal was above 100 µM throughout.
With `C=C1c2nc3ccccc3n2C=C(c2ccc(C)cc2)N1c1ccc(C)cc1`, the TGI in the assay with 786-0 renal, in the assay with CCRF-CEM leukemia, in the assay on DU-145 prostate, in the assay with EKVX NSCLC, with HCT-116 colon and with HOP-62 NSCLC was above 100 µM throughout. Further, the TGI was above 82.2 µM in the assay on KM12 colon; above 100 µM with MALME-3M melanoma; above 100 µM in the assay on MCF7 breast; above 100 µM with MOLT-4 leukemia; above 100 µM in the assay with OVCAR-4 ovarian; above 100 µM in the assay on PC-3 prostate. The TGI was above 96.6 µM in the assay with RXF 393 renal, above 100 µM in the assay on SK-OV-3 ovarian, above 100 µM in the assay on SN12C renal and above 100 µM with TK-10 renal.
For `C/C(=C\c1ccccc1)C(=O)NCc1ccc(C(=O)NCCc2ccccc2)cc1`, the TGI in the assay with 786-0 renal was above 100 µM; with CCRF-CEM leukemia, above 100 µM; in the assay on DU-145 prostate, above 100 µM; in the assay with EKVX NSCLC, above 100 µM; in the assay with HCT-116 colon, above 100 µM; with HOP-62 NSCLC, 10.8 µM. Besides, the TGI with KM12 colon, in the assay on MALME-3M melanoma, in the assay with MCF7 breast, in the assay with MOLT-4 leukemia, in the assay with OVCAR-4 ovarian and in the assay on PC-3 prostate was above 100 µM in each case. Also, the TGI was 41.4 µM with RXF 393 renal, 51.8 µM in the assay on SK-OV-3 ovarian, above 100 µM in the assay with SN12C renal and above 100 µM in the assay on TK-10 renal.
As for `COC(=O)/C=C\C(C#N)(C#N)N=Cc1ccccc1`, the TGI with 786-0 renal amounted to 3.22 µM; with CCRF-CEM leukemia, 2.4 µM; in the assay on DU-145 prostate it was 31.4 µM; in the assay on EKVX NSCLC it was 27.3 µM; with HCT-116 colon, 3.4 µM; with HOP-62 NSCLC, 34 µM. For the same compound, the TGI in the assay on KM12 colon stood at 33.4 µM; in the assay with MALME-3M melanoma, 4.88 µM; in the assay on MCF7 breast, 5.73 µM; in the assay with MOLT-4 leukemia it was 3.85 µM; in the assay with OVCAR-4 ovarian, 13.5 µM; with PC-3 prostate, 13.1 µM. Moreover, the TGI in the assay with RXF 393 renal came to 4.28 µM; with SK-OV-3 ovarian, 32.4 µM; in the assay on SN12C renal, 26.6 µM; in the assay with TK-10 renal it was 5.54 µM.
In the case of `c1ccc(CN[C@]23C4C5CC6C7C5C2C7[C@@](NCc2ccccc2)(C64)N3Cc2ccccc2)cc1` (stereo partly specified), the TGI in the assay with 786-0 renal, in the assay on CCRF-CEM leukemia, with DU-145 prostate, in the assay with EKVX NSCLC, in the assay on HCT-116 colon and in the assay with HOP-62 NSCLC was above 100 µM each time. Moreover, the TGI in the assay on KM12 colon, in the assay with MALME-3M melanoma, in the assay with MCF7 breast, with MOLT-4 leukemia, with OVCAR-4 ovarian and in the assay with PC-3 prostate was above 100 µM each time. Further, the TGI in the assay with RXF 393 renal, in the assay with SK-OV-3 ovarian, in the assay on SN12C renal and in the assay with TK-10 renal was above 100 µM in each case.

The values are drawn from PubChem BioAssay (NCI).
